Data set [1] has as its target human CB1 receptor (hCB1) (Homo sapiens, UniProt P21554). It counts as cell-based.
Data set [2] addresses T1, rat CB2 receptor (rCB2) (Rattus norvegicus, UniProt Q9QZN9).
T1 sequence (Q9QZN9 1-360): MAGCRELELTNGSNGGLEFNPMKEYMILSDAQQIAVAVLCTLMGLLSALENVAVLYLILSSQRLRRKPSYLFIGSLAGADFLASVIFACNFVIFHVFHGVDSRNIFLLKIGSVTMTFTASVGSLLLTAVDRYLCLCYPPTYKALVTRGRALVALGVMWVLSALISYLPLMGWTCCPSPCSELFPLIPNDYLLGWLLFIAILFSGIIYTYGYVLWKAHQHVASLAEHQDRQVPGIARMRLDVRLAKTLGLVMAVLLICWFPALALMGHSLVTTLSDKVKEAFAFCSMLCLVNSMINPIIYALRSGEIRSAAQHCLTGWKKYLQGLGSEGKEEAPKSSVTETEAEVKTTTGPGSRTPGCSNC

For data set [3], the system named is Male Sprague-Dawley rats. Put plainly: Complete Freund's Adjuvant (CFA) model of inflammatory pain, Randall-Selitto paw pressure. It counts as in vivo. Particulars: rat, intraperitoneal. As to the method: Male Sprague-Dawley rats (Hsd:Sprague-Dawley®™ SD®™, Harlan, Indianapolis, Ind.) weighing 201±1 grams, were housed three per cage. Animals had free access to food and water and were maintained on a twelve hour light/dark schedule for the entire duration of the experiment. Approximately 12 hours prior to behavioral testing, animals were placed on wire mesh bottom cages with free access to water but no access to food. Test compounds were prepared in 50% PEG-400 (Sigma-Aldrich, cat. P3265). Indomethacin (Fluka, cat 57413) was suspended in 0.5% methylcellulose (Sigma-Aldrich, cat. 274429). Groups of eight animals were anesthetized with 2-3% isoflurane and local inflammation induced by 50 μl CFA (Sigma-Aldrich, cat F5881, Mycobacterium tuberculosis 1 mg/ml) injected subcutaneously into the plantar surface of the left paw.
Assessment of mechanical hyperalgesia: Baseline and post-treatment withdrawal thresholds to a noxious mechanical stimulus were measured using the Randall-Selitto paw pressure apparatus (Ugo Basile Analgesymeter, model 7200). […] Mechanical hyperalgesia was measured using the Randall-Selitto paw pressure device before CFA injection and after intraperitoneal (i.p.) compound administration over a twenty-four-hour period. The mean and standard error of the mean (SEM) were determined for the injured and normal paws for each treatment group.

human CB1 receptor (hCB1), sequence (P21554 whole entry): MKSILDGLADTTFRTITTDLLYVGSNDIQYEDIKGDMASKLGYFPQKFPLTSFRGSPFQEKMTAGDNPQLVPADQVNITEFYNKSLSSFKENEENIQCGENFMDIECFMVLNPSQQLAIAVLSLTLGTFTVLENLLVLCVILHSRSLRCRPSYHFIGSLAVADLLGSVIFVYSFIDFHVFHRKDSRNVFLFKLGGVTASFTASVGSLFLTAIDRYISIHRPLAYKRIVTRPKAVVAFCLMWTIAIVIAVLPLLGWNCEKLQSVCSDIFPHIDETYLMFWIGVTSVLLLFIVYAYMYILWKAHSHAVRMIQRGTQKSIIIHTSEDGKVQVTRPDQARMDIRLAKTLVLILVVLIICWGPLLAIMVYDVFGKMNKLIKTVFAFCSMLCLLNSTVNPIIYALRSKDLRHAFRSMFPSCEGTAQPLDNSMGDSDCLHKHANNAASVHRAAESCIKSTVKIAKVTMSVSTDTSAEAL

Take `CNC(=O)[C@@H](NC(=O)c1nc(-c2ccc3c(c2)OCCO3)n2c1CN(C)CCC2)C(C)(C)C` [Compound 326, (S)-3-(2,3-dihydrobenzo[b][1,4]dioxin-6-yl)-N-(3,3-dimethyl-1-(methylamino)-1-oxobutan-2-yl)-8-methyl-6,7,8,9-tetrahydro-5H-imidazo[1,5-a][1,4]diazepine-1-carboxamide]: the figures for the EC50 in data set [1] and in data set [2] were more than 10 µM and 0.01 to 0.1 µM, respectively. In the same order, the values of `CN1CCn2c(-c3ccc(Cl)cc3F)nc(C(=O)N3CCC4(CCNC4=O)CC3)c2C1` [Compound 220, 8-(3-(4-chloro-2-fluorophenyl)-7-methyl-5,6,7,8-tetrahydroimidazo[1,5-a]pyrazine-1-carbonyl)-2,8-diazaspiro[4.5]decan-1-one] are more than 10 µM and more than 10 µM. For `CCS(=O)(=O)N1CCn2c(-c3ccccc3)nc(C(=O)N[C@H](C(=O)NC)C(C)(C)C)c2C1` [Compound 91, (S)—N-(3,3-dimethyl-1-(methylamino)-1-oxobutan-2-yl)-7-(ethylsulfonyl)-3-phenyl-5,6,7,8-tetrahydroimidazo[1,5-a]pyrazine-1-carboxamide], the “side effects during the experiment” value in data set [3] (CFA experiment) was “No side effects were observed”. The “effect on paw withdrawal threshold after intrapaw CFA” value in data set [3] (vs vehicle over twenty-four hours, FIG. 1) was “anti-hyperalgesic effect”. Further, in data set [2], the EC50 (usually the concentration giving half of the maximal effect) fell in the range of 0.01 to 0.1 µM. In data set [1], `CNC(=O)[C@@H](NC(=O)c1nc(-c2cccnc2C)n2c1CN(C)CCC2)C(C)(C)C` [Compound 640, (S)-N-(3,3-dimethyl-1-(methylamino)-1-oxobutan-2-yl)-8-methyl-3-(2-methylpyridin-3-yl)-6,7,8,9-tetrahydro-5H-imidazo[1,5-a][1,4]diazepine-1-carboxamide] gave an EC50 of more than 10 µM. `CNC(=O)C1(NC(=O)c2nc(-c3cc(F)c(F)cc3F)n3c2CN(C)CCC3)CCCC1` [Compound 719, 8-methyl-N-(1-(methylcarbamoyl)cyclopentyl)-3-(2,4,5-trifluorophenyl)-6,7,8,9-tetrahydro-5H-imidazo[1,5-a][1,4]diazepine-1-carboxamide] registered an EC50 in data set [1] of more than 10 µM. Compound `CNC(=O)[C@@H](NC(=O)c1nc(-c2cc(F)c(F)cc2OC(C)C)n2c1CN(C)CCC2)C(C)(C)C` [Compound 651, (S)-3-(4,5-difluoro-2-isopropoxyphenyl)-N-(3,3-dimethyl-1-(methylamino)-1-oxobutan-2-yl)-8-methyl-6,7,8,9-tetrahydro-5H-imidazo[1,5-a][1,4]diazepine-1-carboxamide] displayed an EC50 in data set [1] of more than 10 µM. Turning to `CNC(=O)[C@@H](NC(=O)c1nc(-c2cccc3c2OC(F)(F)O3)n2c1CN(C)CCC2)C(C)(C)C` [Compound 682, (S)-3-(2,2-difluorobenzo[d][1,3]dioxol-4-yl)-N-(3,3-dimethyl-1-(methylamino)-1-oxobutan-2-yl)-8-methyl-6,7,8,9-tetrahydro-5H-imidazo[1,5-a][1,4]diazepine-1-carboxamide], the EC50 in data set [1] was more than 10 µM. The same measure, in the same setting: next, `CNC(=O)[C@@H](NC(=O)c1nc(-c2ccc(C(F)(F)F)cc2C(F)(F)F)n2c1CN(C)CCC2)C(C)(C)C` [Compound 617, (S)-3-(2,4-bis(trifluoromethyl)phenyl)-N-(3,3-dimethyl-1-(methylamino)-1-oxobutan-2-yl)-8-methyl-6,7,8,9-tetrahydro-5H-imidazo[1,5-a][1,4]diazepine-1-carboxamide]: more than 10 µM; `CC(C)(C)[C@H](NC(=O)c1nc(-c2ccccc2)n2c1CNCC2)C(=O)NCCF` [Compound 731, (S)-N-(1-(2-fluoroethylamino)-3,3-dimethyl-1-oxobutan-2-yl)-3-phenyl-5,6,7,8-tetrahydroimidazo[1,5-a]pyrazine-1-carboxamide]: more than 10 µM.

Regarding `CN1CCCn2c(-c3cc(Cl)ccc3F)nc(C(=O)N[C@H](C(=O)N[C@H]3CN4CCC3CC4)C(C)(C)C)c2C1` [Compound 744, 3-(5-chloro-2-fluorophenyl)-N-((S)-3,3-dimethyl-1-oxo-1-((R)-quinuclidin-3-ylamino)butan-2-yl)-8-methyl-6,7,8,9-tetrahydro-5H-imidazo[1,5-a][1,4]diazepine-1-carboxamide], the EC50 in data set [1] is more than 10 µM. Same read-out and setting: next, `COC(=O)C1CN(C(=O)c2nc(-c3cc(Cl)c(F)cc3F)n3c2CN(C)CCC3)CCC1=O` (stereo not drawn) [Compound 826, methyl 1-(3-(5-chloro-2,4-difluorophenyl)-8-methyl-6,7,8,9-tetrabydro-5H-imidazo[1,5-a][1,4]diazepine-1-carbonyl)-4-oxopiperidine-3-carboxylate]: more than 10 µM; `CNC(=O)[C@@H](NC(=O)c1nc(-c2cccc(F)c2OC)n2c1CN(C)CCC2)C(C)(C)C` [Compound 657, (S)-N-(3,3-dimethyl-1-(methylamino)-1-oxobutan-2-yl)-3-(3-fluoro-2-methoxyphenyl)-8-methyl-6,7,8,9-tetrahydro-5H-imidazo[1,5-a][1,4]diazepine-1-carboxamide]: more than 10 µM; `CN1CCCn2c(-c3cc(Cl)ccc3F)nc(C(=O)N[C@H](CN3CCCC3=O)C(C)(C)C)c2C1` [Compound 769, (S)-3-(5-chloro-2-fluorophenyl)-N-(3,3-dimethyl-1-(2-oxopyrrolidin-1-yl)butan-2-yl)-8-methyl-6,7,8,9-tetrahydro-5H-imidazo[1,5-a][1,4]diazepine-1-carboxamide]: more than 10 µM. Still for that read-out and setting: next, `CNC(=O)[C@H]1CCN(C(=O)c2nc(-c3cc(Cl)c(F)cc3F)n3c2CN(C)CCC3)C1` [Compound 809, (S)-1-(3-(5-chloro-2,4-difluorophenyl)-8-methyl-6,7,8,9-tetrahydro-5H-imidazo[1,5-a][1,4]diazepine-1-carbonyl)-N-methylpyrrolidine-3-carboxamide]: more than 10 µM. The same measure, in the same setting: the same measure for `CNC(=O)[C@@H](NC(=O)c1nc(-c2ccc(=O)[nH]c2)n2c1CN(C)CCC2)C(C)(C)C` [Compound 645, (S)-N-(3,3-dimethyl-1-(methylamino)-1-oxobutan-2-yl)-8-methyl-3-(6-oxo-1,6-dihydropyridin-3-yl)-6,7,8,9-tetrahydro-5H-imidazo[1,5-a][1,4]diazepine-1-carboxamide]: more than 10 µM; for `CNC(=O)C1(NC(=O)c2nc(-c3cc(Cl)c(F)cc3F)n3c2CN(C)CCC3)CC1` [Compound 905, 3-(5-chloro-2,4-difluorophenyl)-8-methyl-N-(1-(methylcarbamoyl)cyclopropyl)-6,7,8,9-tetrahydro-5H-imidazo[1,5-a][1,4]diazepine-1-carboxamide]: more than 10 µM; for `CN1CCCn2c(-c3cc(F)c(F)cc3F)nc(C(=O)NC(C)(C)CO)c2C1` [Compound 765, N-(1-hydroxy-2-methylpropan-2-yl)-8-methyl-3-(2,4,5-trifluorophenyl)-6,7,8,9-tetrahydro-5H-imidazo[1,5-a][1,4]diazepine-1-carboxamide]: more than 10 µM.

The values are drawn from patent US8431565B2 (priority 2007, dated 2013).
